# Laboratory results reported in patent US20120197004A1, “NOVEL ANTI-MICROBIAL PEPTIDOMIMETIC COMPOUNDS AND METHODS TO CALCULATE ANTI-MICROBIAL ACTIVITY” (priority 2006, published 2012).
# Like-named read-outs stand apart in the source and are kept apart here. *1 amine or outer side, *2 acyl side, *3 side chain or, on linkers, in order; H or OH if unused. Where a SMILES comes first, the peptide text is derived from it. [ ]: non-standard residue; d: D form. ξ: configuration not given here. Oic = O=C(O)[C@@H]1C[C@@H]2CCCC[C@@H]2N1; Ethylenediamine = C(CN[*:2])N[*:1]; Tic = O=C(O)[C@@H]1Cc2ccccc2CN1; ξTic = O=C(O)C1Cc2ccccc2CN1; ξOic = O=C(O)C1CC2CCCCC2N1; Ahx = NCCCCCC(=O)O
# Tests used:
# [1] = tested on: Mycobacterium ranae (ATCC 110)
# [2] = tested on: Staphylococcus aureus Methicillin/Gentamicin/Tetracycline Resistant (ATCC 33592); conditions: for p(MIC) Staphylococcus aureus ME/GM/TC resistant: -log(MIC); for MIC Staphylococcus aureus ME/GM/TC resistant: Minimal Inhibitory Concentration, tested at 100-0.1 in 1% DMSO; for Minimum Inhibitory Concentration Staphylococcus aureus ME/GM/TC resistant: in vitro MIC, tested at 100, 30, 10, 3, 1, 0.3 and 0.1 μM in 1% DMSO; for Actual Bioactivity: p(MIC) used in Staphylococcus aureus QSAR model
# in vitro [3] = conditions: mouse, microsomes, pH 7.4
# in vitro [4] = conditions: human, microsomes, pH 7.4
# [5] = tested on: Salmonella typhimurium (ATCC 13311); conditions: for p(MIC) Salmonella typhimurium: -log(MIC); for MIC Salmonella typhimurium: ATCC 13311; for Minimum Inhibitory Concentration Salmonella typhimurium: in vitro MIC
# [6] = tested on: Bacillus subtillis (ATCC 43223); conditions: for p(MIC) Bacillus Subtillis: -log(MIC); for MIC Bacillus Subtillis: ATCC 43223
# in vitro [7] = conditions: monkey, microsomes, pH 7.4
# in vitro [8] = conditions: rat, microsomes, pH 7.4
# in vitro [9] = conditions: dog, microsomes, pH 7.4
Compound,Actual Bioactivity [1],MIC Mycobacterium ranae ([1]; ATCC 110) [µM],Minimum Inhibitory Concentration Mycobacterium ranae ([1]; ATCC 110) [µM],p(MIC) Staphylococcus aureus ME/GM/TC resistant [2],MIC Staphylococcus aureus ME/GM/TC resistant [2] [µM],Minimum Inhibitory Concentration Staphylococcus aureus ME/GM/TC resistant [2] [µM],Actual Bioactivity [2],"remaining at 0.25 h, 1 μM (in vitro [3]) [%]","remaining at 0.5 h, 1 μM (in vitro [3]) [%]","remaining at 1 h, 1 μM (in vitro [3]) [%]","remaining at 0.25 h, 1 μM (in vitro [4]) [%]",p(MIC) Salmonella typhimurium [5],MIC Salmonella typhimurium [5] [µM],p(MIC) Bacillus Subtillis [6],MIC Bacillus Subtillis [6] [µM],"remaining at 0.25 h, 1 μM (in vitro [7]) [%]","remaining at 0.5 h, 1 μM (in vitro [7]) [%]","remaining at 1 h, 1 μM (in vitro [7]) [%]",% hemolysis 100/25 μM (first value) (red blood cells) [%/],% hemolysis 100/25 μM (second value) (red blood cells) [%],further results
"CC(=O)NCC(=O)N[C@@H](Cc1ccccc1)C(=O)N1Cc2ccccc2C[C@H]1C(=O)N1[C@H](C(=O)NCC(=O)N[C@@H](CCCCN)C(=O)N2Cc3ccccc3C[C@H]2C(=O)N2[C@H](C(=O)NCC(=O)N[C@@H](Cc3ccccc3)C(=O)N3Cc4ccccc4C[C@H]3C(=O)N3[C@H](C(=O)NCC(=O)N[C@@H](CCCCN)C(=O)N4Cc5ccccc5C[C@H]4C(=O)N[C@@H](CCCCN)C(=O)N[C@@H](CCCCN)C(=O)N[C@@H](CCCCN)C(=O)N[C@@H](CCCCN)C(=O)NCCN)C[C@@H]4CCCC[C@@H]43)C[C@@H]3CCCC[C@@H]32)C[C@@H]2CCCC[C@@H]21 [FKAB-1H, Ac-GF-Tic-Oic-GK-Tic-Oic-GF-Tic-Oic-GK-Tic-KKKK-CONH—CH2—CH2—NH2] (Ac-GF[Tic][Oic]GK[Tic][Oic]GF[Tic][Oic]GK[Tic]KKKK-Ethylenediamine)",5.000,10.00,10,5.52,3.00,3,5.520,0,62,73,34,5.00,10,6.00,1.00,0,0,0,–,–,–
"CC(=O)N[C@@H](Cc1ccccc1)C(=O)N1Cc2ccccc2C[C@H]1C(=O)N1[C@H](C(=O)N[C@@H](CCCCN)C(=O)N2Cc3ccccc3C[C@H]2C(=O)N2[C@H](C(=O)N[C@@H](Cc3ccccc3)C(=O)N3Cc4ccccc4C[C@H]3C(=O)N3[C@H](C(=O)N[C@@H](CCCCN)C(=O)N4Cc5ccccc5C[C@H]4C(=O)N[C@@H](CCCCN)C(=O)N[C@@H](CCCCN)C(=O)N[C@@H](CCCCN)C(=O)N[C@@H](CCCCN)C(=O)N[C@@H](CCCCN)C(=O)N[C@@H](CCCCN)C(N)=O)C[C@@H]4CCCC[C@@H]43)C[C@@H]3CCCC[C@@H]32)C[C@@H]2CCCC[C@@H]21 [FKAB-1Gc1, Ac-F-Tic-Oic-K-Tic-Oic-F-Tic-Oic-K-Tic-KKKKKK-CONH2] (Ac-F[Tic][Oic]K[Tic][Oic]F[Tic][Oic]K[Tic]KKKKKK-NH2)",5.520,3.00,–,5.52,3.00,3,5.520,–,–,–,–,5.00,10,6.00,1.00,–,–,–,41.3,33.5,"MR Activity [1]: 3 µM; Minimum Inhibitory Concentration Mycobacterium ranae [1]: 3 µM; SA Activity ([2]; Staphylococcus aureus (SA), Table 30): 3"
"CC(C)NCC(O)COc1cccc2ccccc12 (centres unmarked) [Propranolol, propranolol, reference compound]",–,–,–,–,–,–,–,9,9,4,97,–,–,–,–,34,9,0.5,–,–,"remaining at 0.5 h, 1 μM (in vitro [4]): 86%; remaining at 1 h, 1 μM (in vitro [4]): 72%; remaining at 0.25 h, 1 μM (in vitro [8]): 0.1%; remaining at 0.5 h, 1 μM (in vitro [8]): 0.1%; remaining at 1 h, 1 μM (in vitro [8]): 0.1%; remaining at 0.25 h, 1 μM (in vitro [9]): 76%; remaining at 0.5 h, 1 μM (in vitro [9]): 51%; remaining at 1 h, 1 μM (in vitro [9]): 24%"
"CC(=O)N[C@@H](Cc1ccccc1)C(=O)N1Cc2ccccc2CC1C(=O)N1C(C(=O)N[C@@H](CCCCN)C(=O)N2Cc3ccccc3CC2C(=O)N2C(C(=O)N[C@@H](Cc3ccccc3)C(=O)N3Cc4ccccc4CC3C(=O)N3C(C(=O)N[C@@H](CCCCN)C(=O)N4Cc5ccccc5CC4C(=O)N[C@@H](CCCCN)C(=O)N[C@@H](CCCCN)C(=O)N[C@@H](CCCCN)C(=O)N[C@@H](CCCCN)C(N)=O)CC4CCCCC43)CC3CCCCC32)CC2CCCCC21 (stereo partly drawn) [FKAB-1Gc, Ac-F-Tic-Oic-K-Tic-Oic-F-Tic-Oic-K-Tic-KKKK-CONH2] (Ac-F[ξTic][ξOic]K[ξTic][ξOic]F[ξTic][ξOic]K[ξTic]KKKK-NH2)",–,30.00,30,–,3.00,3,–,86,10,7,–,–,10,–,1.00,17,24,75,86.8,50,"remaining at 0.25 h, 1 μM (in vitro [8]): 73%; remaining at 0.5 h, 1 μM (in vitro [8]): 80%; remaining at 1 h, 1 μM (in vitro [8]): 107%; remaining at 0.5 h, 1 μM (in vitro [9]): 14%; remaining at 1 h, 1 μM (in vitro [9]): 46%"
"CC(=O)NCC(=O)N[C@@H](Cc1ccccc1)C(=O)N1[C@H](C(=O)NCC(=O)N[C@@H](CCCCN)C(=O)N2[C@H](C(=O)NCC(=O)N[C@@H](Cc3ccccc3)C(=O)N3[C@H](C(=O)NCC(=O)N[C@@H](CCCCN)C(=O)N[C@@H](CCCCN)C(=O)N[C@@H](CCCCN)C(=O)N[C@@H](CCCCN)C(=O)N[C@@H](CCCCN)C(N)=O)C[C@@H]4CCCC[C@@H]43)C[C@@H]3CCCC[C@@H]32)C[C@@H]2CCCC[C@@H]21 [FKAB-1Gf, Ac-GF-Oic-GK-Oic-GF-Oic-GKKKKK-CONH2] (Ac-GF[Oic]GK[Oic]GF[Oic]GKKKKK-NH2)",4.000,100.00,–,0.00,–,–,0.000,–,–,–,–,4.00,100,5.52,3.00,–,–,–,5.9,3.2,"Minimum Inhibitory Concentration Mycobacterium ranae [1]: 100 μM/180 μg/mL; % hemolysis 100/25 μM (first value) (red blood cells; 100 μM): 5.9%; Minimum Inhibitory Concentration Salmonella typhimurium [5]: 180 µg/mL; Minimum Inhibitory Concentration Salmonella typhimurium ([5]; tested at 100, 30, 10, 3, 1, 0.3 and 0.1 μM in 1% DMSO): 100 µM; Minimum Inhibitory Concentration Bacillus subtillis ([6]; in vitro MIC): 5.4 µg/mL"
"CC(=O)NCCCCCC(=O)N[C@@H](Cc1ccccc1)C(=O)N1Cc2ccccc2C[C@H]1C(=O)N1[C@H](C(=O)NCCCCCC(=O)N[C@@H](CCCCN)C(=O)N2Cc3ccccc3C[C@H]2C(=O)N2[C@H](C(=O)NCCCCCC(=O)N[C@@H](Cc3ccccc3)C(=O)N3Cc4ccccc4C[C@H]3C(=O)N3[C@H](C(=O)NCCCCCC(=O)N[C@@H](CCCCN)C(=O)N4Cc5ccccc5C[C@H]4C(=O)N[C@@H](CCCCN)C(=O)N[C@@H](CCCCN)C(=O)N[C@@H](CCCCN)C(=O)N[C@@H](CCCCN)C(N)=O)C[C@@H]4CCCC[C@@H]43)C[C@@H]3CCCC[C@@H]32)C[C@@H]2CCCC[C@@H]21 [FKAB-1Gd2, Ac-Ahx-F-Tic-Oic-Ahx-K-Tic-Oic-Ahx-F-Tic-Oic-Ahx-K-Tic-KKKK-CONH2] (Ac-[Ahx]F[Tic][Oic][Ahx]K[Tic][Oic][Ahx]F[Tic][Oic][Ahx]K[Tic]KKKK-NH2)",5.520,3.00,3,5.00,10.00,10,5.000,–,–,–,–,5.00,10,6.00,1.00,–,–,–,44.7,26.6,–
